Calls of active or inactive are those of the source.
Tests used:
[1] = molecular target: Cytochrome P450 3A4 (Homo sapiens, UniProt P08684);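 also: CYP3A4 tested as one member of a cytochrome P450 panel screen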
[2] = molecular target: T1, Heat shock factor protein 1 (Mus musculus, UniProt P38532); test: inhibition of MG132-induced HSE-luciferase signal, confirmation, cell-based, NIH3T3, luminescence, dose retest (AID 2382); assay type: functional;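 also: NIH3T3 fibroblasts with HSF1-driven luciferase reporter stressed by proteasome inhibitor MG132; luminescence from HSF1-driven luciferase expression after 8 hours of MG132 stress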
T1 sequence (P38532 whole entry): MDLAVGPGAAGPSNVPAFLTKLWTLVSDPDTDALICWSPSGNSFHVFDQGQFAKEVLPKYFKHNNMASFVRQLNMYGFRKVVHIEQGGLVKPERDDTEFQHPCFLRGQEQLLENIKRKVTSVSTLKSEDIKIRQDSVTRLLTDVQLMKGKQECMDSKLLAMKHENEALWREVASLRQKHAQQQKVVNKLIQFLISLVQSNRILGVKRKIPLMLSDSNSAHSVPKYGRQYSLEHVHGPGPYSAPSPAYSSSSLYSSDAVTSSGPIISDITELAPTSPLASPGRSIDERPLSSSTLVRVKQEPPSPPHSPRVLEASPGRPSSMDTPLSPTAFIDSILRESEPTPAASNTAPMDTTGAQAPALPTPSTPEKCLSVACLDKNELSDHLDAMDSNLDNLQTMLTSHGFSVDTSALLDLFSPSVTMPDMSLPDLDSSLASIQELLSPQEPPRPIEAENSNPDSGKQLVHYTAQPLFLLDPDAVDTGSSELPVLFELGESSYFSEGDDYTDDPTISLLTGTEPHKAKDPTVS

[3] = molecular target: Cytochrome P450 2D6 (Homo sapiens, UniProt P10635);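 also: CYP2D6 member of a cytochrome P450 panel assay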
[4] = molecular target: Cytochrome P450 2C19 (Homo sapiens, UniProt P33261); test: Cytochrome panel assay with activity outcomes. Panel member name: p450-cyp2c19 Compounds with AC50 equal or less than 10 uM are considered active; assay type: functional
[5] = molecular target: T2, Cytochrome P450 1A2 (Homo sapiens, UniProt P05177);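 also: PubChem cytochrome P450 panel assay, CYP1A2 panel member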
T2 sequence (P05177 whole entry): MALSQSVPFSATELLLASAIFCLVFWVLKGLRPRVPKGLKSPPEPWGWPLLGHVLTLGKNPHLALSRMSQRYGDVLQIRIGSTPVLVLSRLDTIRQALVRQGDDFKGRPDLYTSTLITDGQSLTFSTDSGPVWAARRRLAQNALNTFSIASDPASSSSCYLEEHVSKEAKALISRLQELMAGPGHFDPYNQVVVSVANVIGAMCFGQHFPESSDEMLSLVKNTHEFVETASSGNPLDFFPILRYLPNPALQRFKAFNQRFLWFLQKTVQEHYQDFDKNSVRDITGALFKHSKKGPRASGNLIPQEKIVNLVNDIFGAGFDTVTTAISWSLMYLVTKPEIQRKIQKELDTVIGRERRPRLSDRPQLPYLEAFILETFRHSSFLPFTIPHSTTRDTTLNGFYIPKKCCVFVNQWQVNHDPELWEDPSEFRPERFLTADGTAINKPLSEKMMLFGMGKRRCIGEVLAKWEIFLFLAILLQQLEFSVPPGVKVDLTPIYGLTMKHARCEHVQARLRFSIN

[6] = molecular target: Cytochrome P450 2C9 (Homo sapiens, UniProt P11712)
Chain of Cytochrome P450 2C9 (P11712 whole entry): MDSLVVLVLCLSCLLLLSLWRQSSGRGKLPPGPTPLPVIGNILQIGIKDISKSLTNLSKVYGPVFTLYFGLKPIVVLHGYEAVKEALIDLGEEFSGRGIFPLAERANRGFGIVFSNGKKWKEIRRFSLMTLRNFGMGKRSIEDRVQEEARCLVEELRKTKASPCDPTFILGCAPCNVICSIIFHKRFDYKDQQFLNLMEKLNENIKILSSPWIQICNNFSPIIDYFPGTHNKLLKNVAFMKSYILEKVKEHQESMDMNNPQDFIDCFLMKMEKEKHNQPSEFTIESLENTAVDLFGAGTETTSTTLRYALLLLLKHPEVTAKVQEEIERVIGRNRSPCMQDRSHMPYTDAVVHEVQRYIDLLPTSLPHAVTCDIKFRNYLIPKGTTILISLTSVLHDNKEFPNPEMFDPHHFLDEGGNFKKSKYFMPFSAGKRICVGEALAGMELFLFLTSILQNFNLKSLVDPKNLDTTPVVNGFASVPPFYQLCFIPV

Chain of Cytochrome P450 3A4 (P08684 whole entry): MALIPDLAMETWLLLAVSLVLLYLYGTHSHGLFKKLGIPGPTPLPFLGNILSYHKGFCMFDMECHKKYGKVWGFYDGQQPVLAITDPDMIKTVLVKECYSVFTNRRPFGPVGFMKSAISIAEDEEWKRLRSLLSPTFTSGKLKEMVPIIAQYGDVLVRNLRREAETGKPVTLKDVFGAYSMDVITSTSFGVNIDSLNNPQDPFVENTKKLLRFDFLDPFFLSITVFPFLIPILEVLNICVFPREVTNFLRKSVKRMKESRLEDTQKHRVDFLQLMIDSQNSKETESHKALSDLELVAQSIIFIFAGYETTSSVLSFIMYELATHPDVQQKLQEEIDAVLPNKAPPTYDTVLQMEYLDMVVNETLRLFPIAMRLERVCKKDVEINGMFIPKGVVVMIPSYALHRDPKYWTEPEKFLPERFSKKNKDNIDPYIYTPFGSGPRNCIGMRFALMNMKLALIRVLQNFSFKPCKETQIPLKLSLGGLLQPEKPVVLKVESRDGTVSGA
Chain of Cytochrome P450 2C19 (P33261 whole entry): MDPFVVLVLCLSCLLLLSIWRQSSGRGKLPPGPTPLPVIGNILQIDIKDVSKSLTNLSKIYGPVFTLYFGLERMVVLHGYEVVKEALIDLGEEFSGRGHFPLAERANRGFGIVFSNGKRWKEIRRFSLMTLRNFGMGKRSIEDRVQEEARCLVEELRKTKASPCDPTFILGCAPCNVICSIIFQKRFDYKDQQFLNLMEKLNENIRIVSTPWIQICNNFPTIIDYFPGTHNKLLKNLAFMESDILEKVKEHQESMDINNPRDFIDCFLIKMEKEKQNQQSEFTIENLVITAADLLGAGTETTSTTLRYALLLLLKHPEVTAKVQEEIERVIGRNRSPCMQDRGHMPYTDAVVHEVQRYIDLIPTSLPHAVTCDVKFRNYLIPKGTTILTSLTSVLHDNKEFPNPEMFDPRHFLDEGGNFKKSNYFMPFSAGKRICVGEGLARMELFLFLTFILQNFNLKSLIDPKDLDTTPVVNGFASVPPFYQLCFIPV
Chain of Cytochrome P450 2D6 (P10635 whole entry): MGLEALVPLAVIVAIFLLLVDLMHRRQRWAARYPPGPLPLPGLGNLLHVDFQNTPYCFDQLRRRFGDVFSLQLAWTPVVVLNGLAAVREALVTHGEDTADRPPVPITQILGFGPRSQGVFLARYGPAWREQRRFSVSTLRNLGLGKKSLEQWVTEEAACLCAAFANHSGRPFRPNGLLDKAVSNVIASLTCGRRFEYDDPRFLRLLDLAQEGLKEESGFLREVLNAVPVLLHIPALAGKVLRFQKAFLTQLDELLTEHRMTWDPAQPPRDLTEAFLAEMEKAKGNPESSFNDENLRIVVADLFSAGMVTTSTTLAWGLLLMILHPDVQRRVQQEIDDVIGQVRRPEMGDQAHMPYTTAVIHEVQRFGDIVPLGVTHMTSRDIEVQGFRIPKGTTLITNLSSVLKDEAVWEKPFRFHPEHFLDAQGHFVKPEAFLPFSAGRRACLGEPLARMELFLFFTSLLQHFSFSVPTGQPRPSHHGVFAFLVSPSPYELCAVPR

SMILES: Cn1cccc1C(=O)N1CCC[C@@]2(CCN(C(=O)Nc3cccc(C#N)c3)C2)C1
- AC50 [1]: 25.1 µM (inconclusive)

SMILES: O=C(Nc1ccc(Cl)cc1)C1CCCN1C(=O)NCc1ccccc1 (centres undefined)
- EC50 [2]: > 195 µM (not active)

SMILES: c1ccc(CN2CCCC3(CCNCC3)C2)cc1
- AC50 [3]: 12.6 µM (inconclusive)

SMILES: O=C(Nc1ccc(F)cc1F)c1cc2nc3c(c(C(F)(F)F)n2n1)CCCC3
- EC50 [2]: < 0.16 µM (active)

SMILES: COc1ccc(/C=N\c2c(O)ccc3ccccc23)cc1OC
- AC50 ([4]; read-out: AC50): 5.01 µM (inconclusive)
- AC50 [1]: 6.31 µM (inconclusive)

SMILES: CCc1nnc(NC(=O)CSc2nc(C)c3c(c2C#N)CCCC3)s1
- EC50 [2]: > 195 µM (not active)

SMILES: CCN(CC)C[C@@H](O)c1ccc2ccc3ccccc3c2c1
- AC50 [3]: 3.16 µM (inconclusive)

SMILES: c1cncc(CNc2nc(-c3cccnc3)nc3ccccc23)c1
- AC50 [5]: 0.316 µM (active)
- AC50 ([4]; read-out: AC50): 39.8 µM (inconclusive)
- AC50 [3]: 20 µM (inconclusive)

SMILES: CCNc1ncc2nc(C)c(=O)n(C)c2n1
- AC50 [3]: 39.8 µM (inconclusive)

SMILES: COc1cccc(-c2ccc3ncnc(NC4CCNCC4)c3c2)c1
- AC50 [1]: 31.6 µM (inconclusive)

SMILES: CC(C)C[C@H]1C(=O)N2CCC[C@@H]2[C@]2(O)O[C@](NC(=O)[C@@H]3C=C4c5cccc6[nH]c(Br)c(c56)C[C@H]4N(C)C3)(C(C)C)C(=O)N12
- AC50 [6]: 10 µM (inconclusive)

SMILES: C/C(Cc1ccccc1)=N\NC(=O)CNC(=O)Cc1ccc(Cl)cc1
- EC50 [2]: > 195 µM (not active)

SMILES: COC(=O)[C@@]1(Cc2ccc(F)cc2)[C@H]2c3cc(C(=O)N(C)C)n(Cc4ccc(C)o4)c3C[C@H]2CN1C(=O)c1ccccc1
- AC50 [3]: 39.8 µM (inconclusive)

SMILES: CN(C)CCCn1cc(C2=C(c3c[nH]c4ccccc34)C(=O)NC2=O)c2ccccc21 [GF-109203]
- AC50 [6]: 15.8 µM (inconclusive)

SMILES: CC(=O)OC[C@@H]1O[C@H](C/C=N\OC[C@@H](C)[C@H](OCc2ccccc2)C(C)C)C=C[C@@H]1OC(C)=O
- AC50 [6]: 6.31 µM (inconclusive)

SMILES: COc1ccc(-c2nc3cnc(N4CCNCC4)nc3n(CCc3ccccc3)c2=O)cc1
- AC50 [5]: 15.8 µM (inconclusive)
- AC50 ([4]; read-out: AC50): 39.8 µM (inconclusive)
- AC50 [3]: 15.8 µM (inconclusive)
- AC50 [1]: 20 µM (inconclusive)

SMILES: CCc1ccc(N/C(SCc2ccccc2C)=C(/C#N)C(=O)NCc2ccco2)cc1
- AC50 [5]: 7.08 µM (inconclusive)
- AC50 [3]: 15.8 µM (inconclusive)

SMILES: CC(=O)NCCc1c(Cc2ccccc2)[nH]c2ccccc12 [LUZINDOLE]
- AC50 [6]: 15.8 µM (inconclusive)

SMILES: COc1ccc(O[C@H]2C=C[C@@H](c3ccccc3)O[C@H]2COC(=O)CC/C(C)=N/OCC[C@@H]2C=C[C@H](OC(C)=O)[C@H](COC(C)=O)O2)cc1
- AC50 [3]: 0.794 µM (inconclusive)

SMILES: O=C(c1ccncc1)N1CCC2(CC1)CN(c1ccncc1)C2
- AC50 [6]: 31.6 µM (inconclusive)

SMILES: COc1ccc(-c2nn(-c3ccccc3)cc2/C=C(\CC(=O)O)c2nc3ccccc3s2)cc1OC
- EC50 [2]: > 195 µM (not active)

SMILES: C[C@@H](C(=O)O)[C@@H]1C[C@@]1(C)[C@@H](NC(=O)OCc1ccccc1)c1ccccc1
- AC50 [1]: 15.8 µM (inconclusive)

SMILES: CCCCN(C(=O)NC(=O)Nc1ccccc1OCC)S(C)(=O)=O
- AC50 [6]: 8.91 µM (inconclusive)

SMILES: CC(C)(C)N(NC(=O)c1ccccc1)C(=O)c1cccc(C(=O)N(NC(=O)c2ccccc2)C(C)(C)C)c1
- AC50 [4]: inconclusive
- AC50 [1]: 3.98 µM (inconclusive)

SMILES: Cc1oc(/C=N/NC(=O)CC2(C)OCCO2)cc1Br
- EC50 [2]: > 195 µM (not active)

SMILES: O=C(N/N=C(\c1ccccc1)c1cccnc1)C(O)(c1ccccc1)c1ccccc1
- AC50 [6]: 0.794 µM (inconclusive)

SMILES: Clc1ccc(/C=N/c2c(-c3ccc(Cl)cc3)nc3n2CCS3)cc1
- AC50 [6]: 10 µM (inconclusive)

SMILES: O=C(c1csnn1)N1CCC2(CC1)CN(c1cccc(-c3ccccc3)c1)C2
- AC50 [3]: 10 µM (inconclusive)
- AC50 [1]: 39.8 µM (inconclusive)

SMILES: CC(C)c1ccc2oc(=O)cc(CN3CCCCC3)c2c1
- EC50 [2]: > 195 µM (not active)

SMILES: CCC(=O)N(CCC(c1ccco1)c1ccccc1OC)Cc1cccs1 (centres undefined)
- EC50 [2]: > 195 µM (not active)
